From US8895581B2, “1H-imidazo[4,5-c]quinolines” (Boehringer Ingelheim International GmbH, priority 2010, dated 2014)

Target: Recombinant human PDK1 enzyme (aa 52-556) (Homo sapiens (Human), UniProt O15530)
Experiment: PDK1 kinase assay
Assay type: biochemical
Conditions: 25 μM ATP solution with gamma-P33-ATP, PDKtide substrate, 90 min at RT
Method: The activity of the compounds according to the invention on the kinase PDK1 which inhibits the signal transduction pathway is determined in an in vitro kinase assay with recombinantly prepared protein:
Recombinant human PDK1 enzyme (aa 52-556) linked at its N-terminal end to His6 is isolated from baculovirus-infected insect cells. Purified enzyme may be obtained for example from the University of Dundee, Scotland. The following components are combined in a well of a 96-well round-based dish (Greiner bio-one, No. 650101): • 1. 15 μL of compound to be tested in varying concentrations (e.g. starting at 10 μM, and diluted in steps of 1:5) in APT buffer (50 mM Tris/Cl pH7.5; 0.05% β-mercaptoethanol; 10 mM Mg-acetate; 0.0166% Tween 20; 3.33% DMSO) • 2. 15 μL His6-PDK1 (aa 52-556) 3.33 ng/well) and PDKtide (KTFCGTPEYLAPEVRRE […]), synthesised by Pepceuticals Limited, Nottingham, United Kingdom; 25 μM final concentration); His6-PDK1 and PDKtide are together diluted accordingly in assay buffer (50 mM tris pH 7.5, 0.05% β-mercaptoethanol, 10 mM Mg-acetate); PDKtide is present in this mixture as an 83.3 μM solution. These 30 μl are routinely incubated for 30 min at RT. • 3. 20 μL ATP solution (25 μM ATP with 1.0 μCi/well gamma-P33-ATP). The final concentration of Tween 20 is 0.005%.
The reaction is started by adding the ATP solution and the mixture is incubated for 90 min at RT. At the start of the reaction the dishes are shaken gently. The reaction is stopped by the addition of 50 μL/well of 500 mM phosphoric acid (H3PO4) and incubated for about 20 min at RT. The precipitate is transferred by harvesting onto filter plates (96-well microtitre filter plate: UniFilter GF/C; Perkin Elmer; No. 6005174), then washed 6 times with 50 mM H3PO4 and dried at 60° C. Then the plate is stuck down with sealing tape, 25 μL/well of scintillation solution (Microscint 0; Perkin Elmer; No. 6013611) are added and the amount of P33 precipitated is measured using the Wallac Betacounter. The measured data are evaluated using Graphpad Prism software.

Sequence of Recombinant human PDK1 enzyme (aa 52-556) (O15530 52-556): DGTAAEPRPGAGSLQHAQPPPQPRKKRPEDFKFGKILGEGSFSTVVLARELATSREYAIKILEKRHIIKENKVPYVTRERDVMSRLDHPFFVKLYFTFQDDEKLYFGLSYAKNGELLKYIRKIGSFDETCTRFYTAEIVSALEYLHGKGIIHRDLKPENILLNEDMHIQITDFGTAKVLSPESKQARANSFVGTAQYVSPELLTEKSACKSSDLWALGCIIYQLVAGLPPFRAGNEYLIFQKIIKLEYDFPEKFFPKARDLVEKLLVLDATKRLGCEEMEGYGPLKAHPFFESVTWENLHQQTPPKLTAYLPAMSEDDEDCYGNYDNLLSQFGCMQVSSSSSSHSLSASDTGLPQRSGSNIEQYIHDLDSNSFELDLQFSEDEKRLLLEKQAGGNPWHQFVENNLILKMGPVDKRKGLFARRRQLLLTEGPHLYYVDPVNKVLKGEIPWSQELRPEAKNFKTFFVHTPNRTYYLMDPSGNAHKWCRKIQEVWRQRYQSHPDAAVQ

IC50 [nM] | SMILES
1 | O=C(NCC#Cc1ccc2ncc3nc[nH]c3c2c1)c1cncn(Cc2ccc(F)c(F)c2)c1=O [I-1, 1-(3,4-difluoro-benzyl)-6-oxo-1,6-dihydro-pyrimidine-5-carboxylic acid [3-(1H-imidazo[4,5-c]quinolin-8-yl)-prop-2-ynyl]-amide]
4 | O=C(NCC#Cc1ccc2ncc3ncn(CCO)c3c2c1)c1cncn(Cc2ccc(F)c(F)c2)c1=O [I-2]
4 | O=C(NCC#Cc1ccc2ncc3ncn(C4CCC4)c3c2c1)c1cncn(Cc2ccc(F)c(F)c2)c1=O [I-3]
2 | O=C(NCC#Cc1ccc2ncc3ncn(CCCO)c3c2c1)c1cncn(Cc2ccc(F)c(F)c2)c1=O [I-4]
50 | CN(C)CCn1cnc2cnc3ccc(C#CCNC(=O)c4cncn(Cc5ccc(F)c(F)c5)c4=O)cc3c21 [I-5]
26 | CN1CC[C@@H](n2cnc3cnc4ccc(C#CCNC(=O)c5cncn(Cc6ccc(F)c(F)c6)c5=O)cc4c32)C1 [I-6]
18 | CN1CC[C@H](n2cnc3cnc4ccc(C#CCNC(=O)c5cncn(Cc6ccc(F)c(F)c6)c5=O)cc4c32)C1 [I-7]
16 | CN(C)CCCn1cnc2cnc3ccc(C#CCNC(=O)c4cncn(Cc5ccc(F)c(F)c5)c4=O)cc3c21 [I-8]
10 | CN1CCC[C@@H](n2cnc3cnc4ccc(C#CCNC(=O)c5cncn(Cc6ccc(F)c(F)c6)c5=O)cc4c32)C1 [I-9]
2 | CN1CCC(n2cnc3cnc4ccc(C#CCNC(=O)c5cncn(Cc6ccc(F)c(F)c6)c5=O)cc4c32)CC1 [I-10]
11 | CC(C)N1CCC(n2cnc3cnc4ccc(C#CCNC(=O)c5cncn(Cc6ccc(F)c(F)c6)c5=O)cc4c32)CC1 [I-11]
9 | O=C(NCC#Cc1ccc2ncc3ncn([C@H]4CCCNC4)c3c2c1)c1cncn(Cc2ccc(F)c(F)c2)c1=O [I-12]
16 | O=C(NCC#Cc1ccc2ncc3ncn([C@@H]4CCNC4)c3c2c1)c1cncn(Cc2ccc(F)c(F)c2)c1=O [I-13]
8 | O=C(NCC#Cc1ccc2ncc3ncn(C4CCNCC4)c3c2c1)c1cncn(Cc2ccc(F)c(F)c2)c1=O [I-14]
28 | O=C(NCC#Cc1ccc2ncc3ncn([C@H]4CCNC4)c3c2c1)c1cncn(Cc2ccc(F)c(F)c2)c1=O [I-15]
2 | Cc1cc(C(=O)NCC#Cc2ccc3ncc4nc(C)n(C(C)C)c4c3c2)c(=O)n([C@H](C)c2ccc(F)c(F)c2)n1 [II-1]
5 | Cc1nc2cnc3ccc(C#CCNC(=O)c4cc(Cl)nn(Cc5ccc(F)c(F)c5)c4=O)cc3c2n1C(C)C [II-4]
4 | CCOc1cc(C(=O)NCC#Cc2ccc3ncc4nc(C)n(C(C)C)c4c3c2)c(=O)n(Cc2ccc(F)c(F)c2)n1 [II-5]
1 | Cc1nc2cnc3ccc(C#CCNC(=O)c4cccn([C@H](CO)c5cccc(F)c5)c4=O)cc3c2n1C(C)C [II-6]
55 | Cc1nc2cnc3ccc(C#CCNC(=O)c4cccn([C@H](C)c5ccc(F)c(F)c5)c4=O)cc3c2n1C(C)C [II-7]
507 | Cc1nc2cnc3ccc(C#CCNC(=O)c4cccn([C@H](C)C5CCCCC5)c4=O)cc3c2n1C(C)C [II-8]
2 | Cc1nc2cnc3ccc(C#CCNC(=O)c4cccn([C@H](CO)c5ccc(F)c(F)c5)c4=O)cc3c2n1C(C)C [II-9]
2 | Cc1nc2cnc3ccc(C#CCNC(=O)c4cncn(Cc5ccc(F)c(F)c5)c4=O)cc3c2n1C(C)C [II-10]
70 | Cc1cc(C(=O)NCC#Cc2ccc3ncc4nc(C)n(C(C)C)c4c3c2)c(=O)n([C@@H](C)c2ccc(F)c(F)c2)n1 [II-11]

IC50 [nM] | SMILES
5 | CCc1c(C(=O)NCC#Cc2ccc3ncc4nc(C)n(C(C)C)c4c3c2)c(=O)n(Cc2ccc(F)c(F)c2)n1C [II-12]
34 | Cc1nc2cnc3ccc(C#CCNC(=O)c4cccn([C@@H](C)C5CCCCC5)c4=O)cc3c2n1C(C)C [II-14]
5 | Cc1nc2cnc3ccc(C#CCNC(=O)c4c(C)n(C)n(C(C)c5ccc(F)c(F)c5)c4=O)cc3c2n1C(C)C (stereo not drawn) [II-15]
5 | Cc1nc2cnc3ccc(C#CCNC(=O)c4c(C)n(C)n(Cc5ccc(F)c(F)c5)c4=O)cc3c2n1C(C)C [II-16]
1 | Cc1nc2cnc3ccc(C#CCNC(=O)c4cccn([C@@H](C)c5ccc(F)c(F)c5)c4=O)cc3c2n1C(C)C [II-17]
1 | COc1cc(C(=O)NCC#Cc2ccc3ncc4nc(C)n(C(C)C)c4c3c2)c(=O)n(Cc2ccc(F)c(F)c2)n1 [II-19]
2 | Cc1nc2cnc3ccc(C#CCNC(=O)c4cccn([C@@H](CO)c5ccccc5)c4=O)cc3c2n1C(C)C [II-21]
16 | Cc1nc2cnc3ccc(C#CCNC(=O)c4cccn([C@@H](CN)c5ccccc5)c4=O)cc3c2n1C(C)C [II-22]
1100 | Cc1nc2cnc3ccc(C#CCNC(=O)c4cccn(CC5(O)CCCCC5)c4=O)cc3c2n1C(C)C [II-27]
2 | Cc1nc2cnc3ccc(C#CCNC(=O)c4cccn([C@@H](CN)c5ccc(F)c(F)c5)c4=O)cc3c2n1C(C)C [II-30]
8 | Cc1nc2cnc3ccc(C#CCNC(=O)c4cccn(Cc5ccc(F)c(F)c5)c4=O)cc3c2n1C1CCN(C(C)C)CC1 [II-31]
3 | Cc1nc2cnc3ccc(C#CCNC(=O)c4cccn([C@@H](C)c5ccc(F)c(F)c5)c4=O)cc3c2n1C1CCN(C(C)C)CC1 [II-32]
6 | Cc1nc2cnc3ccc(C#CCNC(=O)c4cccn(Cc5ccc(F)c(F)c5)c4=O)cc3c2n1C1CCN(C)CC1 [II-34]
7 | CC(C)N1CCC(n2cnc3cnc4ccc(C#CCNC(=O)c5cccn(Cc6ccc(F)c(F)c6)c5=O)cc4c32)CC1 [II-35]
18 | O=C(NCC#Cc1ccc2ncc3ncn([C@@H]4CCNC4)c3c2c1)c1cccn([C@H](CO)c2ccccc2)c1=O [III-1]
2 | CC(C)N1CCC(n2cnc3cnc4ccc(C#CCNC(=O)c5cccn([C@@H](C)c6ccc(F)c(F)c6)c5=O)cc4c32)CC1 [III-2]
15 | Cc1cc(C(=O)NCC#Cc2ccc3ncc4ncn([C@H]5CC[C@@H](N(C)C)CC5)c4c3c2)c(=O)n(Cc2ccc(F)c(F)c2)n1 [III-3]
21 | Cc1nc2cnc3ccc(C#CCNC(=O)c4ccnn(Cc5ccc(F)c(F)c5)c4=O)cc3c2n1C1CCN(C(C)C)CC1 [III-4]
1 | Cc1nc2cnc3ccc(C#CCNC(=O)c4cccn([C@@H](C)c5ccc(F)c(F)c5)c4=O)cc3c2n1[C@H]1CC[C@@H](N(C)C)CC1 [III-5]
2 | Cc1nc2cnc3ccc(C#CCNC(=O)c4cccn([C@@H](C)c5ccc(F)c(F)c5)c4=O)cc3c2n1C1CCN(C)CC1 [III-6]
7 | Cc1nc2cnc3ccc(C#CCNC(=O)c4cc(Cl)nn(Cc5ccc(F)c(F)c5)c4=O)cc3c2n1CCc1ccccc1 [III-7]
2010 | O=C(NCC#Cc1ccc2ncc3ncn(C4CCNCC4)c3c2c1)c1cccn([C@H](CO)c2ccccc2)c1=O [III-8]
53 | Cc1nc2cnc3ccc(C#CCNC(=O)c4cncn(Cc5ccc(F)c(F)c5)c4=O)cc3c2n1CCN(C)C [III-13]
1 | CN1CCC(n2cnc3cnc4ccc(C#CCNC(=O)c5cc(Cl)nn(Cc6ccc(F)c(F)c6)c5=O)cc4c32)CC1 [III-14]

SMILES | IC50 [nM]
Cc1nc2cnc3ccc(C#CCNC(=O)c4cccn(Cc5ccccc5)c4=O)cc3c2n1C(C)C [II-2] | 8
Cc1nc2cnc3ccc(C#CCNC(=O)c4cccn(Cc5ccc(F)c(F)c5)c4=O)cc3c2n1C(C)C [II-3] | 2
Cc1nc2cnc3ccc(C#CCNC(=O)c4cccn(CC5CCCCC5)c4=O)cc3c2n1C(C)C [II-18] | 14
Cc1nc2cnc3ccc(C#CCNC(=O)c4cccn(CC5C[C@@H]6CC[C@H]5C6)c4=O)cc3c2n1C(C)C (stereo partly drawn) [II-23] | 15
Cc1nc2cnc3ccc(C#CCNC(=O)c4cccn(CC5CCOCC5)c4=O)cc3c2n1C(C)C [II-24] | 590
Cc1nc2cnc3ccc(C#CCNC(=O)c4cccn(CC5CCCCO5)c4=O)cc3c2n1C(C)C (stereo not drawn) [II-25] | 1020
Cc1nc2cnc3ccc(C#CCNC(=O)c4cccn(CC5CCCC5)c4=O)cc3c2n1C(C)C [II-26] | 27
Cc1nc2cnc3ccc(C#CCNC(=O)c4cccn(C[C@H]5CCCC[C@H]5O)c4=O)cc3c2n1C(C)C [II-28] | 221
Cc1nc2cnc3ccc(C#CCNC(=O)c4cccn(CC5CCCOC5)c4=O)cc3c2n1C(C)C (stereo not drawn) [II-29] | 202
CN(C)CCn1cnc2cnc3ccc(C#CCNC(=O)c4cccn(Cc5ccccc5)c4=O)cc3c21 [III-10] | 277
O=C(NCC#Cc1ccc2ncc3ncn(CCO)c3c2c1)c1cccn(Cc2ccc(F)c(F)c2)c1=O [III-11] | 18
O=C(NCC#Cc1ccc2ncc3ncn(CCO)c3c2c1)c1cccn(Cc2ccccc2)c1=O [III-12] | 68
